According to ChEMBL document CHEMBL4118157, “Efficiency of newly prepared thiazole derivatives against some cutaneous fungi” (2018):
Converted amounts (≈) assume the structure as drawn.

Legend:
Candida albicans [1] = assay: Antifungal activity against Candida albicans after 48 hrs by broth microdilution method; format: functional
Nannizzia gypsea [2] = assay: Antifungal activity against Microsporum gypseum after 72 hrs by broth microdilution method; format: functional
[3] = test system: Trichophyton mentagrophytes; assay: Antifungal activity against Trichophyton mentagrophytes after 72 hrs by broth microdilution method; format: functional
Candida albicans [4] = assay: Fungicidal activity against Candida albicans measured after 72 hrs; format: functional
Nannizzia gypsea [5] = assay: Fungicidal activity against Microsporum gypseum measured after 96 hrs; format: functional
[6] = test system: Trichophyton mentagrophytes; assay: Fungicidal activity against Trichophyton mentagrophytes measured after 96 hrs; format: functional
Candida albicans [7] = assay: Inhibition of Candida albicans keratinase activity at MIC incubated for 5 days under non-shaking condition and subsequent incubation for 5 days under shaking condition by UV-vis spectrophotometric analysis relative to control
Nannizzia gypsea [8] = assay: Inhibition of Microsporum gypseum keratinase activity at MIC incubated for 5 days under non-shaking condition and subsequent incubation for 5 days under shaking condition by UV-vis spectrophotometric analysis relative to control
[9] = test system: Trichophyton mentagrophytes; assay: Inhibition of Trichophyton mentagrophytes keratinase activity at MIC incubated for 5 days under non-shaking condition and subsequent incubation for 5 days under shaking condition by UV-vis spectrophotometric analysis relative to control
Candida albicans [10] = assay: Antifungal activity against Candida albicans infected in guinea pig skin assessed as recovery from infection at 10 mg/g administered once daily via superficial route for 15 days measured after 30 days post last dose relative to control; format: functional
Nannizzia gypsea [11] = assay: Antifungal activity against Microsporum gypseum infected in guinea pig skin assessed as recovery from infection at 10 mg/g administered once daily via superficial route for 15 days measured after 30 days post last dose relative to control; format: functional
[12] = test system: Trichophyton mentagrophytes; assay: Antifungal activity against Trichophyton mentagrophytes infected in guinea pig skin assessed as recovery from infection at 10 mg/g administered once daily via superficial route for 15 days measured after 30 days post last dose relative to control; format: functional
Candida albicans [13] = assay: Antifungal activity against Candida albicans; format: functional
[14] = test system: Trichophyton mentagrophytes; assay: Antifungal activity against Trichophyton mentagrophytes; format: functional
Candida albicans [15] = assay: Inhibition of ergosterol biosynthesis in Candida albicans at MIC by spectrophotometric method relative to control; format: functional
Nannizzia gypsea [16] = assay: Inhibition of ergosterol biosynthesis in Microsporum gypseum at MIC by spectrophotometric method relative to control; format: functional
[17] = test system: Trichophyton mentagrophytes; assay: Inhibition of ergosterol biosynthesis in Trichophyton mentagrophytes at MIC by spectrophotometric method relative to control; format: functional
Candida albicans [18] = assay: Inhibition of Candida albicans keratinase activity at 8 ppm incubated for 5 days under non-shaking condition and subsequent incubation for 5 days under shaking condition by UV-vis spectrophotometric analysis relative to control
Nannizzia gypsea [19] = assay: Inhibition of Microsporum gypseum keratinase activity at 8 ppm incubated for 5 days under non-shaking condition and subsequent incubation for 5 days under shaking condition by UV-vis spectrophotometric analysis relative to control
[20] = test system: Trichophyton mentagrophytes; assay: Inhibition of Trichophyton mentagrophytes keratinase activity at 16 ppm incubated for 5 days under non-shaking condition and subsequent incubation for 5 days under shaking condition by UV-vis spectrophotometric analysis relative to control

Row | Compound | MIC (Candida albicans [1]) [µg/mL] | MIC (Nannizzia gypsea [2]) [µg/mL] | MIC [3] [µg/mL] | MFC (Candida albicans [4]) [µg/mL] | MFC (Nannizzia gypsea [5]) [µg/mL] | MFC [6] [µg/mL] | inhibition (Candida albicans [7]) [%] | inhibition (Nannizzia gypsea [8]) [%] | inhibition [9] [%] | Activity (Candida albicans [10]) [%] | Activity (Nannizzia gypsea [11]) [%] | Activity [12] [%] | MIC (Candida albicans [13]) [µg/mL] | MIC [14] [µg/mL] | inhibition (INH) (Candida albicans [15]) [%] | inhibition (INH) (Nannizzia gypsea [16]) [%] | inhibition (INH) [17] [%] | inhibition (Candida albicans [18]) [%] | inhibition (Nannizzia gypsea [19]) [%] | inhibition [20] [%]
1 | Cc1ccc(/N=N/c2sc(NN=C3CCN(C)CC3)nc2-c2ccccc2)cc1 | 2 (≈ 4.94 µM) | 4 (≈ 9.89 µM) | 4 (≈ 9.89 µM) | 4 (≈ 9.89 µM) | 8 (≈ 19.8 µM) | 16 (≈ 39.6 µM) | – | – | – | – | – | – | – | – | – | – | – | – | – | –
2 | CN1CCC(=NNC2=NC(=O)/C(=N\Nc3cccc(Cl)c3)S2)CC1 | 32 (≈ 87.7 µM) | 64 (≈ 175 µM) | 128 (≈ 351 µM) | 128 (≈ 351 µM) | 256 (≈ 702 µM) | > 256 | – | – | – | – | – | – | – | – | – | – | – | – | – | –
3 | Cc1nc(NN=C2CCN(C)CC2)sc1/N=N/c1cccc(Cl)c1 | 32 (≈ 88.2 µM) | 64 (≈ 176 µM) | 128 (≈ 353 µM) | 128 (≈ 353 µM) | 256 (≈ 705 µM) | > 256 | – | – | – | – | – | – | – | – | – | – | – | – | – | –
4 | CN1CCC(=NNc2nc(-c3ccccc3)c(/N=N/c3ccc(Cl)cc3)s2)CC1 | 4 (≈ 9.41 µM) | 4 (≈ 9.41 µM) | 8 (≈ 18.8 µM) | 8 (≈ 18.8 µM) | 16 (≈ 37.7 µM) | 32 (≈ 75.3 µM) | – | – | – | – | – | – | – | – | – | – | – | – | – | –
5 | OC(Cn1cncn1)(Cn1cncn1)c1ccc(F)cc1F [FLUCONAZOLE] | 8 (≈ 26.1 µM) | 8 (≈ 26.1 µM) | 16 (≈ 52.2 µM) | 32 (≈ 104 µM) | 64 (≈ 209 µM) | 64 (≈ 209 µM) | 61.3 to 72.9 | 61.3 to 72.9 | 61.3 to 72.9 | 97 | 84 | 77 | 0.34 (≈ 1.11 µM) | 23.9 (≈ 78 µM) | – | – | – | – | – | –
6 | Cc1nc(NN=C2CCN(C)CC2)sc1/N=N/c1ccc(Cl)cc1Cl | 16 (≈ 40.3 µM) | 64 (≈ 161 µM) | 64 (≈ 161 µM) | 128 (≈ 322 µM) | 128 (≈ 322 µM) | > 256 | – | – | – | – | – | – | – | – | – | – | – | – | – | –
7 | Cc1ccccc1/N=N/c1sc(NN=C2CCN(C)CC2)nc1C | 8 (≈ 23.4 µM) | 32 (≈ 93.4 µM) | 32 (≈ 93.4 µM) | 32 (≈ 93.4 µM) | 64 (≈ 187 µM) | 128 (≈ 374 µM) | – | – | – | – | – | – | – | – | – | – | – | – | – | –
8 | COc1ccc(/N=N/c2sc(NN=C3CCN(C)CC3)nc2C)cc1 | 64 (≈ 179 µM) | 128 (≈ 357 µM) | 128 (≈ 357 µM) | 128 (≈ 357 µM) | 256 (≈ 714 µM) | > 256 | – | – | – | – | – | – | – | – | – | – | – | – | – | –
9 | Cc1nc(NN=C2CCN(C)CC2)sc1/N=N/c1ccc([N+](=O)[O-])cc1 | 64 (≈ 171 µM) | 128 (≈ 343 µM) | 128 (≈ 343 µM) | 256 (≈ 686 µM) | > 256 | > 256 | 10.1 to 31.4 | 10.1 to 31.4 | 10.1 to 31.4 | – | – | – | – | – | 28.5 | 33.1 | 21.4 | – | – | –
10 | CN1CCC(=NNC2=NC(=O)/C(=N\Nc3ccc(Cl)cc3)S2)CC1 | 64 (≈ 175 µM) | 128 (≈ 351 µM) | 128 (≈ 351 µM) | 128 (≈ 351 µM) | 256 (≈ 702 µM) | > 256 | – | – | – | – | – | – | – | – | – | – | – | – | – | –
11 | CN1CCC(=NNc2nc(-c3ccccc3)c(/N=N/c3ccc([N+](=O)[O-])cc3)s2)CC1 | 8 (≈ 18.4 µM) | 8 (≈ 18.4 µM) | 16 (≈ 36.7 µM) | 16 (≈ 36.7 µM) | 32 (≈ 73.5 µM) | 32 (≈ 73.5 µM) | – | – | – | – | – | – | – | – | – | – | – | 66.1 to 92.2 | 66.1 to 92.2 | 66.1 to 92.2
